Data taken from paper PMC9898036, “VIP152 is a selective CDK9 inhibitor with pre-clinical in vitro and in vivo efficacy in chronic lymphocytic leukemia” (Leukemia, 2022).

Tests used:
[1] = biological target: human kinome (Homo sapiens, UniProt O60285); experiment: DiscoverX KINOMEscan kinase profiling (468 assays); assay type: binding; details: ARK5 (Entrez NUAK1); 100 nM; read-out: Percent Control
Description: (§1) Kinomescan Kinase Profiling Assay
(§2) Kinomescan Assay was performed at DiscoverRX and described in Fabian, et al. 2005, Nat.
(§3) Biotechnol. In brief, kinases were produced and subsequently tagged with DNA for qPCR detection.
(§4) Streptavidin-coated magnetic beads were bound to biotinylated kinase ligands to serve as a solid support.
(§5) VIP152 was dissolved in DMSO and tested across a 10 serial threefold dilution set and compared to a test
(§6) compound and a DMSO control.
(§7) Kinome map was produced via TreeSpot
(§8) Analysis from DiscoverRX. […]

[2] = biological target: human kinome (Homo sapiens, UniProt P08069); experiment: DiscoverX KINOMEscan kinase profiling (468 assays); assay type: binding; details: IGF1R; 100 nM; read-out: Percent Control
Description: as §1, §2, §3, §4, §5, §6, §7, §8

[3] = biological target: human kinome (Homo sapiens, UniProt Q13131); experiment: DiscoverX KINOMEscan kinase profiling (468 assays); assay type: binding; details: AMPK-alpha1 (Entrez PRKAA1); 100 nM; read-out: Percent Control
Description: as §1, §2, §3, §4, §5, §6, §7, §8

[4] = biological target: human kinome (Homo sapiens, UniProt Q13882); experiment: DiscoverX KINOMEscan kinase profiling (468 assays); assay type: binding; details: BRK (Entrez PTK6); 100 nM; read-out: Percent Control
Description: as §1, §2, §3, §4, §5, §6, §7, §8

[5] = biological target: human kinome (Homo sapiens, UniProt Q9H2X6); experiment: DiscoverX KINOMEscan kinase profiling (468 assays); assay type: binding; details: HIPK2; 100 nM; read-out: Percent Control
Description: as §1, §2, §3, §4, §5, §6, §7, §8

[6] = biological target: human kinome (Homo sapiens, UniProt Q9UM73, C1156Y); experiment: DiscoverX KINOMEscan kinase profiling (468 assays); assay type: binding; details: ALK(C1156Y); 100 nM; read-out: Percent Control
Description: as §1, §2, §3, §4, §5, §6, §7, §8

[7] = biological target: GSK3β (Homo sapiens, UniProt P49841); experiment: NanoBRET target engagement assay (HEK293); assay type: cell-based
Chain of GSK3β (P49841 whole entry): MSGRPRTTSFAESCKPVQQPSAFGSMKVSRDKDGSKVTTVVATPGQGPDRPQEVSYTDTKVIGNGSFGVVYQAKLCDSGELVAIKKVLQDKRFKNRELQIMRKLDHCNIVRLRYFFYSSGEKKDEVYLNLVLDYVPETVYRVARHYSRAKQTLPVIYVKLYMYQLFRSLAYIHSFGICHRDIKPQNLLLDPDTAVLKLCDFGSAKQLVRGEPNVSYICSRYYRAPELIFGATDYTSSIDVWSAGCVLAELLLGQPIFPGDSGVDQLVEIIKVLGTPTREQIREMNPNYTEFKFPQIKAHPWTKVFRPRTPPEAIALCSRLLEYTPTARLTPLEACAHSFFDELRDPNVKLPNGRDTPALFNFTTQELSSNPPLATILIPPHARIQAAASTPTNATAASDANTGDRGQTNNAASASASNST

[8] = biological target: T1, α2C receptor (Homo sapiens, UniProt P18825); experiment: Eurofins Diversity Panel: adrenergic α2C receptor; assay type: binding
T1 construct: purchased Eurofins
T1 sequence (P18825 whole entry): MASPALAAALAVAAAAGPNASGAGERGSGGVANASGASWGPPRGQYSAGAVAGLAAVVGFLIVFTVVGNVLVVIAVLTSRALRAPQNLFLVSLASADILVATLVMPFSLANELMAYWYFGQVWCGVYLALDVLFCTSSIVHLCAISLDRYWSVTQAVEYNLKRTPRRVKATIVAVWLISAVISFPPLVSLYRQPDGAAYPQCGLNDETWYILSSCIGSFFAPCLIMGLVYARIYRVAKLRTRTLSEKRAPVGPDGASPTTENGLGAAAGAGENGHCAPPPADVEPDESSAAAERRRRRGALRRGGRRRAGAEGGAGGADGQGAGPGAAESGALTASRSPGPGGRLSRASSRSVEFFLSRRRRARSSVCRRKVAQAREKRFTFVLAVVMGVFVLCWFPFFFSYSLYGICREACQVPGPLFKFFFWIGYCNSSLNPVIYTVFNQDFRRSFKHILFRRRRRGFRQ

[9] = biological target: Adenosine A1 (Homo sapiens, UniProt P30542); experiment: Eurofins Diversity Panel; assay type: binding; details: hum, Conc. 10 μM
Chain of Adenosine A1 (P30542 whole entry): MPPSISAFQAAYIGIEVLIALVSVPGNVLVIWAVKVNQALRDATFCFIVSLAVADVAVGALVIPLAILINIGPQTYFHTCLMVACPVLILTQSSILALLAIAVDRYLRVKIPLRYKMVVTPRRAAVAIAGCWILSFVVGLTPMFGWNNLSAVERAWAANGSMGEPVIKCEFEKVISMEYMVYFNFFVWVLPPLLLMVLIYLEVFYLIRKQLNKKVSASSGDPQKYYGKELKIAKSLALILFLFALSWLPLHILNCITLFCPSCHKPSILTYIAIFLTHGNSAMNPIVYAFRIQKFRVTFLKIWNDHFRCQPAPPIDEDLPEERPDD

[10] = biological target: Adenosine A2A (Homo sapiens, UniProt P29274); experiment: Eurofins Diversity Panel; assay type: binding; details: hum, Conc. 10 μM
[11] = test system: Calcium Channel L-Type, Benzothiazepine; experiment: Eurofins Diversity Panel; assay type: binding; details: rat, Conc. 10 μM
[12] = biological target: Dopamine D3 (Homo sapiens, UniProt P35462); experiment: Eurofins Diversity Panel; assay type: binding; details: hum, Conc. 10 μM
Chain of Dopamine D3 (P35462 whole entry): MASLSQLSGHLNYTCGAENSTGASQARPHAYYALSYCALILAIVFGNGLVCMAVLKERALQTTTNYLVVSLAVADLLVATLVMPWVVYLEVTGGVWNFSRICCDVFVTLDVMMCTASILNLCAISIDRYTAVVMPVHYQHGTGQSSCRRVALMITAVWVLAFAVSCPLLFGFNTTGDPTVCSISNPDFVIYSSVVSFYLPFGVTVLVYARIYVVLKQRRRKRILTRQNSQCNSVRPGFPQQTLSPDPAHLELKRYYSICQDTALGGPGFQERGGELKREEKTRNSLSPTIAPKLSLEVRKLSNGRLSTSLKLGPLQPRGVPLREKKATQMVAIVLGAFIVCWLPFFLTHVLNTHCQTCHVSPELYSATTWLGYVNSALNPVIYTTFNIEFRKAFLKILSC

[13] = test system: Glutamate, NMDA, Agonism; experiment: Eurofins Diversity Panel; assay type: binding; details: rat, Conc. 10 μM
[14] = biological target: Interleukin IL-1 (Mus musculus, UniProt P13504); experiment: Eurofins Diversity Panel; assay type: binding; details: Conc. 10 μM
[15] = biological target: Melatonin MT1 (Homo sapiens, UniProt P48039); experiment: Eurofins Diversity Panel; assay type: binding; details: hum, Conc. 10 μM
Chain of Melatonin MT1 (P48039 whole entry): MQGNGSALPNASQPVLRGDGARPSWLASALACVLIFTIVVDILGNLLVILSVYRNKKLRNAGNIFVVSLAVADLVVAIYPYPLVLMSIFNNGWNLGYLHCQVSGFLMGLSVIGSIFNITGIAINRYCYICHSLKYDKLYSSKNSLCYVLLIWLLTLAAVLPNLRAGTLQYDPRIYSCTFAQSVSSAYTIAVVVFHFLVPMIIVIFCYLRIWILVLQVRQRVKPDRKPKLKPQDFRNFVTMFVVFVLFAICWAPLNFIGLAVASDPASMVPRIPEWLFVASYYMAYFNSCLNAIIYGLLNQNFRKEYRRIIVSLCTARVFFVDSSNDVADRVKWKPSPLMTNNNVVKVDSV

[16] = biological target: Transporter, GABA (Rattus norvegicus, UniProt P23978); experiment: Eurofins Diversity Panel; assay type: binding; details: Conc. 10 μM
[17] = biological target: PFPK5(P.falciparum) (Plasmodium falciparum, UniProt P61075); experiment: DiscoverX KINOMEscan kinase profiling; assay type: binding; details: kinase PFPK5(P.falciparum) (Entrez MAL13P1.279); compound concentration 1000 nM; read-out: Percent Control
[18] = biological target: SgK110 (Homo sapiens, UniProt P0C264); experiment: KINOMEscan: SgK110; assay type: binding; details: 100 nM, read-out: Percent Control
[19] = biological target: SRPK3 (Homo sapiens, UniProt Q9UPE1); experiment: KINOMEscan: SRPK3; assay type: binding; details: 100 nM, read-out: Percent Control
[20] = biological target: STK39 (Homo sapiens, UniProt Q9UEW8); experiment: KINOMEscan: STK39; assay type: binding; details: 100 nM, read-out: Percent Control
[21] = biological target: TBK1 (Homo sapiens, UniProt Q9UHD2); experiment: KINOMEscan: TBK1; assay type: binding; details: 100 nM, read-out: Percent Control
[22] = biological target: WNK3 (Homo sapiens, UniProt Q9BYP7); experiment: KINOMEscan: WNK3; assay type: binding; details: 100 nM, read-out: Percent Control
[23] = biological target: YANK3 (Homo sapiens, UniProt Q86UX6); experiment: KINOMEscan: YANK3; assay type: binding; details: 100 nM, read-out: Percent Control
[24] = biological target: AKT1 (Homo sapiens, UniProt P31749); experiment: KINOMEscan: AKT1; assay type: binding; details: 1000 nM, read-out: Percent Control
[25] = biological target: BTK (Homo sapiens, UniProt Q06187); experiment: KINOMEscan: BTK; assay type: binding; details: 1000 nM, read-out: Percent Control
[26] = biological target: DMPK (Homo sapiens, UniProt Q09013); experiment: KINOMEscan: DMPK; assay type: binding; details: 1000 nM, read-out: Percent Control
[27] = biological target: EGFR(L858R) (Homo sapiens, UniProt P00533, L858R); experiment: KINOMEscan: EGFR(L858R); assay type: binding; details: 1000 nM, read-out: Percent Control
[28] = biological target: ERBB4 (Homo sapiens, UniProt Q15303); experiment: KINOMEscan: ERBB4; assay type: binding; details: 1000 nM, read-out: Percent Control
[29] = biological target: FGR (Homo sapiens, UniProt P09769); experiment: KINOMEscan: FGR; assay type: binding; details: 1000 nM, read-out: Percent Control
[30] = biological target: FLT3(K663Q) (Homo sapiens, UniProt P36888, K663Q); experiment: KINOMEscan: FLT3(K663Q); assay type: binding; details: 1000 nM, read-out: Percent Control
[31] = biological target: FLT3(R834Q) (Homo sapiens, UniProt P36888, R834Q); experiment: KINOMEscan: FLT3(R834Q); assay type: binding; details: 1000 nM, read-out: Percent Control
[32] = biological target: GRK2 (Homo sapiens, UniProt P25098); experiment: KINOMEscan: GRK2; assay type: binding; details: 1000 nM, read-out: Percent Control
[33] = biological target: HPK1 (Homo sapiens, UniProt Q92918); experiment: KINOMEscan: HPK1; assay type: binding; details: 1000 nM, read-out: Percent Control
[34] = biological target: HUNK (Homo sapiens, UniProt P57058); experiment: KINOMEscan: HUNK; assay type: binding; details: 1000 nM, read-out: Percent Control
Chain of HUNK (P57058 whole entry): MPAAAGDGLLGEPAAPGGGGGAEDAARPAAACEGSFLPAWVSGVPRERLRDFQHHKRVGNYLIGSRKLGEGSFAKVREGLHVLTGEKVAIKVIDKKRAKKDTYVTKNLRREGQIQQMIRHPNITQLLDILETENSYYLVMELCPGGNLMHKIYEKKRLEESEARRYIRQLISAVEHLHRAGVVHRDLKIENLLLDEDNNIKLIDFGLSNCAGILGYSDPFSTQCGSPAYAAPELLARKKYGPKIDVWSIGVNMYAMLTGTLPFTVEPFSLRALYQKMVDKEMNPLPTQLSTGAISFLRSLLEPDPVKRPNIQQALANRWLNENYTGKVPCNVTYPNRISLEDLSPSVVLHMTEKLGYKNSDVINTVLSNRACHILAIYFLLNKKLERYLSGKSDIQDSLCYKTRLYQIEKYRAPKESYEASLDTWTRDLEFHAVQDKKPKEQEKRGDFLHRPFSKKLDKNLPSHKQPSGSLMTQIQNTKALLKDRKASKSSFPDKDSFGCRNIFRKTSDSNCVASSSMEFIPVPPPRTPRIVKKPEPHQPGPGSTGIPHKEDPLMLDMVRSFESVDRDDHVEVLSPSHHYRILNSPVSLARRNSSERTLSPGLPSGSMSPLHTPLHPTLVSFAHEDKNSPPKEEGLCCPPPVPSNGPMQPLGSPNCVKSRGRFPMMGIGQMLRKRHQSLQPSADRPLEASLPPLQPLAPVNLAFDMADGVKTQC

[35] = biological target: KIT(D816H) (Homo sapiens, UniProt P10721, D816H); experiment: KINOMEscan: KIT(D816H); assay type: binding; details: 1000 nM, read-out: Percent Control
[36] = biological target: MAP3K4 (Homo sapiens, UniProt Q9Y6R4); experiment: KINOMEscan: MAP3K4; assay type: binding; details: 1000 nM, read-out: Percent Control
Chain of MAP3K4 (Q9Y6R4 whole entry): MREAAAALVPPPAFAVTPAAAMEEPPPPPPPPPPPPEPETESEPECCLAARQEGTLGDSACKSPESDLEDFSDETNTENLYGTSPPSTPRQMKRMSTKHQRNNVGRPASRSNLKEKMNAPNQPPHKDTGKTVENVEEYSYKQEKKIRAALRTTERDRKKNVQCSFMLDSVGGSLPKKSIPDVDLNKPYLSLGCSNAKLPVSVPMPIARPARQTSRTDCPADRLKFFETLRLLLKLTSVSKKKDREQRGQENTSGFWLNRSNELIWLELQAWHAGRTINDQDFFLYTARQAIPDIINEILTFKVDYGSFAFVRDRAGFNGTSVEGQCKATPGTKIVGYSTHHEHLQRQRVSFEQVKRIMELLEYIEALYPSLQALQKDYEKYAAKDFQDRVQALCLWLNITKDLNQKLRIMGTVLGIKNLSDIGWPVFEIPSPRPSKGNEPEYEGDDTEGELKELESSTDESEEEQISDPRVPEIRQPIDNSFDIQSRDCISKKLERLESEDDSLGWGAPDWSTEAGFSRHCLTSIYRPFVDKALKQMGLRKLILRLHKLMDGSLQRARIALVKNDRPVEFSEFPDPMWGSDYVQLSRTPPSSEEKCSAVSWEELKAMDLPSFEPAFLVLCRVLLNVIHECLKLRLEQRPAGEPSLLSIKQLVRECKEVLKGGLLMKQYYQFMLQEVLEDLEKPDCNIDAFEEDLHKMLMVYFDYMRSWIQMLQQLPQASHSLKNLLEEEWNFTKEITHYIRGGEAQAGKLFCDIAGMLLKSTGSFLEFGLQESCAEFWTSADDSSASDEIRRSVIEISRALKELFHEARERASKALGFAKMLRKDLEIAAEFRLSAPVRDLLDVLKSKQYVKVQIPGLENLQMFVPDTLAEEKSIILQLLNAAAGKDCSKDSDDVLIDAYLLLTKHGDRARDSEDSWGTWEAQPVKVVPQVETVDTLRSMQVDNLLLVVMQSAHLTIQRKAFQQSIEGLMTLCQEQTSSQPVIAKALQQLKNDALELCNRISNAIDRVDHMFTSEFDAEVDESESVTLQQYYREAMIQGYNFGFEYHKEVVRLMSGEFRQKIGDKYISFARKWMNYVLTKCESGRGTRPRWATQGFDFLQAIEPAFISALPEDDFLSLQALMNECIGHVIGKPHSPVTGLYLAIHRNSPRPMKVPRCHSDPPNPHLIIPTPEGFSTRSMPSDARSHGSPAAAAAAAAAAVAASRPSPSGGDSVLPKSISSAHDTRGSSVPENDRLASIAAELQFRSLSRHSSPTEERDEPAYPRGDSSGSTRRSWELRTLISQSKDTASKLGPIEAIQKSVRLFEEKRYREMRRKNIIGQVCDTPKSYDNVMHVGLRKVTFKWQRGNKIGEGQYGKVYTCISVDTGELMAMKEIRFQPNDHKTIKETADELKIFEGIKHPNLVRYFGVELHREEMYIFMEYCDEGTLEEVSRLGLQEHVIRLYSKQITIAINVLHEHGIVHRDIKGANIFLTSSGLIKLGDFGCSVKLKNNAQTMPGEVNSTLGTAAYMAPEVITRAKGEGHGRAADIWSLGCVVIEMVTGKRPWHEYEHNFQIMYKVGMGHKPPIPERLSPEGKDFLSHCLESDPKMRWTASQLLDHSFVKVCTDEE

[37] = biological target: MST2 (Homo sapiens, UniProt Q13188); experiment: KINOMEscan: MST2; assay type: binding; details: 1000 nM, read-out: Percent Control

Chain of human kinome (Homo sapiens, UniProt O60285) (O60285 whole entry): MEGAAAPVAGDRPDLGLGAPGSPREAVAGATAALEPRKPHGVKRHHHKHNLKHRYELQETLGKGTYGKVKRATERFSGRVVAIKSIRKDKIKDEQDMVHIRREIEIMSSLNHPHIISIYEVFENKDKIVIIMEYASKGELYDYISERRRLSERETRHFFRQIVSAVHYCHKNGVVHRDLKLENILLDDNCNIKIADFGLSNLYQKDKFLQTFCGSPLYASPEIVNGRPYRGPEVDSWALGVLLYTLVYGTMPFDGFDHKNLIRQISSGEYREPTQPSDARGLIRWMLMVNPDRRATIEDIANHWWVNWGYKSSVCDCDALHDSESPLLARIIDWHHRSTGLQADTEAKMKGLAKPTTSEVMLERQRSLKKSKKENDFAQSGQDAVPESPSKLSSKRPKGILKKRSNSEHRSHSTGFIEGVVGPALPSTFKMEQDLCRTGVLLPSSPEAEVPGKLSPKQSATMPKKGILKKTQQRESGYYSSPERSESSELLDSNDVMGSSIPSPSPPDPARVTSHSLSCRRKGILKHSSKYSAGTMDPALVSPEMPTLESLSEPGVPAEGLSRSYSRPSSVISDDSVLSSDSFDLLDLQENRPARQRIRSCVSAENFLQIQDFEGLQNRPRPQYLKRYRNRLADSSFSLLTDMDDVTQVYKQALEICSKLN

## COc1cc(F)ccc1-c1cc(Nc2cc(CS(C)(=N)=O)ccn2)ncc1F (stereo not shown) [VIP152]
[1]
  remaining binding at 0.1 µM: 100%
[2]
  remaining binding at 0.1 µM: 79%
[3]
  remaining binding at 0.1 µM: 89%
[4]
  remaining binding at 0.1 µM: 100%
[5]
  remaining binding at 0.1 µM: 89%
[6]
  remaining binding at 0.1 µM: 100%
[7]
  inhibitory capacity against GSK3β: Inhibits
[8]
  IC50: 340 nM
[9]
  inhibition at 10 µM: 4%
[10]
  inhibition at 10 µM: 22%
[11]
  % Inh.: 16%
[12]
  inhibition at 10 µM: 7%
[13]
  % Inh.: 3%
[14]
  inhibition at 10 µM: -5%
[15]
  inhibition at 10 µM: 6%
[16]
  inhibition at 10 µM: -20%
[17]
  remaining binding at 1 µM: 99%
[18]
  remaining binding at 0.1 µM: 100%
[19]
  remaining binding at 0.1 µM: 100%
[20]
  remaining binding at 0.1 µM: 100%
[21]
  remaining binding at 0.1 µM: 62%
[22]
  remaining binding at 0.1 µM: 95%
[23]
  remaining binding at 0.1 µM: 99%
[24]
  remaining binding at 1 µM: 99%
[25]
  remaining binding at 1 µM: 100%
[26]
  remaining binding at 1 µM: 62%
[27]
  remaining binding at 1 µM: 76%
[28]
  remaining binding at 1 µM: 88%
[29]
  remaining binding at 1 µM: 66%
[30]
  remaining binding at 1 µM: 80%
[31]
  remaining binding at 1 µM: 78%
[32]
  remaining binding at 1 µM: 98%
[33]
  remaining binding at 1 µM: 85%
[34]
  remaining binding at 1 µM: 100%
[35]
  remaining binding at 1 µM: 59%
[36]
  remaining binding at 1 µM: 82%
[37]
  remaining binding at 1 µM: 96%
